From PMC7932521, “2-aminobenzimidazoles for leishmaniasis: From initial hit discovery to in vivo profiling” (PLoS Neglected Tropical Diseases, 2021) come the findings set out here.

Data set [1] addresses T1, B2 (Homo sapiens, UniProt P30411).
T1 construct: expressed in transfected cells; host or cells: CHO
T1 sequence (P30411 1-391): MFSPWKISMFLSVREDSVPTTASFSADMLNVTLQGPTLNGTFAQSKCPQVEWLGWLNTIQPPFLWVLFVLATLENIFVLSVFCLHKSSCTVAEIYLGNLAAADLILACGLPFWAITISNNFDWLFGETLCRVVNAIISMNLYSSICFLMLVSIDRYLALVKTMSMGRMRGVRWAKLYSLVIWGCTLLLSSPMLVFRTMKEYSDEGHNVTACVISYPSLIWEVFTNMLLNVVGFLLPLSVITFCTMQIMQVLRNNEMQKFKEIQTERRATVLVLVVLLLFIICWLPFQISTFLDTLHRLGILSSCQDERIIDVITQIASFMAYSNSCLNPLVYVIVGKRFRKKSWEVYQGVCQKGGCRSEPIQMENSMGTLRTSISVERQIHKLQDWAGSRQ
The data set is described as follows: Bioprofiling 6pt Ag B2 CHO. Type of data set: cell-based. As to conditions: agonist readout. Here is the method: (§1) The compounds were evaluated across a panel of 20 liability targets (37 functional assays) which included functional cell-based GPCRs and ion channels in both agonist and antagonist readout, measuring calcium flux and biochemical functional assays for nuclear hormone receptors and phosphodiesterases using TR-FRET format, in a 6 point 1:3 dilution dose series (maximum final concentration of 10 μM).

The target in the next data set is T2, 5-HT1A (Homo sapiens, UniProt P08908).
T2 construct: expressed in transfected cells; host or cells: CHO
T2 sequence (P08908 1-422): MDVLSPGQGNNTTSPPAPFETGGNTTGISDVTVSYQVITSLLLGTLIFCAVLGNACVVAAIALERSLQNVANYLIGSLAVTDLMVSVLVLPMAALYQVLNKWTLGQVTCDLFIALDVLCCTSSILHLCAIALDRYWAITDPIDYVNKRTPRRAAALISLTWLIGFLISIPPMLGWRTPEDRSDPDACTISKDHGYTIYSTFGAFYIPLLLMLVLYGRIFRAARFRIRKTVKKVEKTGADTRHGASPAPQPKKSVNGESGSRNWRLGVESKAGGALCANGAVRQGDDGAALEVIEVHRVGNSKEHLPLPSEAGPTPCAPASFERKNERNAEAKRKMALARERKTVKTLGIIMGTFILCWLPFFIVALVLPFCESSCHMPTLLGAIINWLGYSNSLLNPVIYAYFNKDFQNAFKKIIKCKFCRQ
Briefly: Bioprofiling 6pt Ag 5-HT1A CHO. The format is cell-based. The conditions noted are these: agonist readout. On the procedure:
as §1

Data set [2] deals with T1, B2. Briefly: Bioprofiling 6pt Antag B2 CHO. Type of data set: cell-based. As to conditions: antagonist readout vs Bradykinin. On the procedure: as §1
For another data set, the target named is T3, ETB (Homo sapiens, UniProt P24530).
T3 construct: expressed in transfected cells; host or cells: CHO
T3 sequence (P24530 27-442): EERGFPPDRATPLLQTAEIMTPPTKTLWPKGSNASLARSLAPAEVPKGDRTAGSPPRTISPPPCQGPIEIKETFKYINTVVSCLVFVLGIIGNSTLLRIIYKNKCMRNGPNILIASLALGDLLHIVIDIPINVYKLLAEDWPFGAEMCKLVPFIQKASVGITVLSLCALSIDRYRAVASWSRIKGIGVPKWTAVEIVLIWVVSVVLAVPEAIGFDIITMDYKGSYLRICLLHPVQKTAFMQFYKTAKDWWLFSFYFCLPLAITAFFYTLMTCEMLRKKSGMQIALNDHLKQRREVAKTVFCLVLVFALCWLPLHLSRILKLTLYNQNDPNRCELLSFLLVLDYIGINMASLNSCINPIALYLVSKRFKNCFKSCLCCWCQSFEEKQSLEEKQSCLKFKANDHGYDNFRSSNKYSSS
Briefly: Bioprofiling 6pt Ag ETB CHO. The format is cell-based. The conditions noted are these: agonist readout. Here is the method: as §1

Another data set addresses T4, Opioid mu (Homo sapiens, UniProt P35372).
T4 construct: expressed in transfected cells; host or cells: CHO
Briefly: Bioprofiling 6pt Antag Opioid mu CHO. The format is cell-based. The conditions noted are these: antagonist readout vs DAMGO. Here is the method:
as §1

Another data set deals with Cav1.2 (L-type) (Mus musculus, UniProt Q01815). Briefly: Bioprofiling 6pt Antag Cav1.2 (L-type) ND7/23. Type of data set: cell-based. The conditions noted are these: mouse/rat, ND7/23 cells; antagonist readout vs KCl. Here is the method: as §1
The next data set deals with P2Y. The data set is described as follows: Bioprofiling 6pt Antag P2Y CHO. The conditions noted are these: antagonist readout vs ATP; read-out: Bioprofiling 6pt Antag P2Y CHO Hamster IC50. Type of data set: cell-based. On the procedure: as §1
The nature of another data set: Medium protein binding. Type of data set: in vitro ADME. The conditions noted are these: for Media Binding: S1 Data; for Medium binding: % bound. On the procedure:
For plasma protein binding, pooled plasma was thawed in a water bath at 37°C and centrifuged at 4,000 rpm for 5 min to remove any clots. The pH value was measured and adjusted to 7.4, if necessary. RPMI medium (pH 7.4) supplemented with 10% fetal calf serum was used. Working solutions (400 μM) of test compounds were prepared by diluting appropriate volume of the stock solutions with DMSO. Working solutions (400 μM) were spiked into plasma to achieve 2 μM final concentrations as loading solutions. The concentration of organic solvent in the final solutions was 0.5% DMSO. The dialysis instrument was assembled following manufacturer’s instructions. Aliquots of loading solution were loaded in triplicate to the donor side of each dialysis well and dialyzed against an equal volume of dialysis buffer. The plate was shaken and incubated for 6 hours in a humidified incubator with 5% CO2 at 37°C. At the end of dialysis, aliquots of dialysate and retentate were removed into sample collection plates. Each sample was matched with an opposite blank buffer or plasma, with a ratio of matrix:dialysis buffer of 50:50 (v:v) in each well and participated with 500μL of stop solution (50% acetonitrile/methanol; internal standards—200 ng/mL tolbutamide, labetalol and 50 ng/mL metformin). All sample collection plates were rotated at 800 rpm for 5 min to mix samples and centrifuged at 20°C, 4000 rpm for 20 min. Aliquots of supernatant of all the samples were removed and injected into LC-MS/MS. Results were calculated as the percentage of remaining parent compound in plasma or medium after incubation.

For the next data set, the target named is T5, CB1 (Homo sapiens, UniProt P21554).
T5 construct: expressed in transfected cells; host or cells: CHO
The data set is described as follows: Bioprofiling 6pt Ag CB1 CHO. The format is cell-based. The conditions noted are these: agonist readout. Here is the method:
as §1

A further data set has as its target T6, D2L (Homo sapiens, UniProt P14416).
T6 construct: expressed in transfected cells; host or cells: CHO
Briefly: Bioprofiling 6pt Antag D2L CHO. Type of data set: cell-based. As to conditions: antagonist readout vs Quinpirole. On the procedure: as §1

Data set [3] is described as follows: Experimental distribution coefficient (eLogD). Type of data set: physicochemical. As to conditions: for chromatographic logD: reverse stationary phase HPLC column (Ascentis RP-Amide). A digest of the protocol: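 Lipophilicity derived from retention time on an Ascentis RP-Amide reverse-phase column by LC-MS/MS, compounds at 1.0 μg/mL with internal standard; mobile phases 5% methanol in 10mM ammonium acetate pH 7.4 and 100% methanol. LogD calculated from a linear calibration of eight standards' retention times against known LogD.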

Another data set addresses PDE4B2 (Homo sapiens, UniProt Q07343). The data set is described as follows: Bioprofiling 6pt Antag PDE4B2. Type of data set: biochemical. The conditions noted are these: substrate cAMP. Here is the method:
as §1

T5 sequence (P21554 whole entry): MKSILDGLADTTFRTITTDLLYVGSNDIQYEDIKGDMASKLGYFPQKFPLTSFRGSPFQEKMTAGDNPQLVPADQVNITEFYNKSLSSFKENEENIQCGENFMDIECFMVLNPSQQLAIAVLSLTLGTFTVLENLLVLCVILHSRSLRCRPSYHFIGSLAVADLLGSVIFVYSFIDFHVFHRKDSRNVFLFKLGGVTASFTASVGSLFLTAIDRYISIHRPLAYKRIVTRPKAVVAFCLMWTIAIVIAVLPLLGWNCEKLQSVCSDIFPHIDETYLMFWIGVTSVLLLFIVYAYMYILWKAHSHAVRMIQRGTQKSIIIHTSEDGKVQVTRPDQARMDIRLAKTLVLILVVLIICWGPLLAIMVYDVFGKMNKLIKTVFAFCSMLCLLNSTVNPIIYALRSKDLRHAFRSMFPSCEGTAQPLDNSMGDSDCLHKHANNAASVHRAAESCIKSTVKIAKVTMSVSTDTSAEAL
T6 sequence (P14416 whole entry): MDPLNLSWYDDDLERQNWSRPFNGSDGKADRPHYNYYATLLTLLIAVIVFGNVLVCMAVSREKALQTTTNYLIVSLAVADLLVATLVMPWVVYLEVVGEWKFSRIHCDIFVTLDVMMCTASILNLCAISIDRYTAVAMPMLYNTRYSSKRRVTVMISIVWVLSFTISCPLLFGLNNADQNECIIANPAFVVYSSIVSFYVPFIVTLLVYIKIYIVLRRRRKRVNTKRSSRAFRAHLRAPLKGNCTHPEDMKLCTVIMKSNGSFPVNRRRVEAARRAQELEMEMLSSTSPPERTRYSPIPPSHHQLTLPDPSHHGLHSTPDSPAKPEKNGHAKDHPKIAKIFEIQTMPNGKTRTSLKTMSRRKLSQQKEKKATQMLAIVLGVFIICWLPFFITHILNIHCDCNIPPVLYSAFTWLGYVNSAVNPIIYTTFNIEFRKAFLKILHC
Cav1.2 (L-type), sequence (Q01815 whole entry): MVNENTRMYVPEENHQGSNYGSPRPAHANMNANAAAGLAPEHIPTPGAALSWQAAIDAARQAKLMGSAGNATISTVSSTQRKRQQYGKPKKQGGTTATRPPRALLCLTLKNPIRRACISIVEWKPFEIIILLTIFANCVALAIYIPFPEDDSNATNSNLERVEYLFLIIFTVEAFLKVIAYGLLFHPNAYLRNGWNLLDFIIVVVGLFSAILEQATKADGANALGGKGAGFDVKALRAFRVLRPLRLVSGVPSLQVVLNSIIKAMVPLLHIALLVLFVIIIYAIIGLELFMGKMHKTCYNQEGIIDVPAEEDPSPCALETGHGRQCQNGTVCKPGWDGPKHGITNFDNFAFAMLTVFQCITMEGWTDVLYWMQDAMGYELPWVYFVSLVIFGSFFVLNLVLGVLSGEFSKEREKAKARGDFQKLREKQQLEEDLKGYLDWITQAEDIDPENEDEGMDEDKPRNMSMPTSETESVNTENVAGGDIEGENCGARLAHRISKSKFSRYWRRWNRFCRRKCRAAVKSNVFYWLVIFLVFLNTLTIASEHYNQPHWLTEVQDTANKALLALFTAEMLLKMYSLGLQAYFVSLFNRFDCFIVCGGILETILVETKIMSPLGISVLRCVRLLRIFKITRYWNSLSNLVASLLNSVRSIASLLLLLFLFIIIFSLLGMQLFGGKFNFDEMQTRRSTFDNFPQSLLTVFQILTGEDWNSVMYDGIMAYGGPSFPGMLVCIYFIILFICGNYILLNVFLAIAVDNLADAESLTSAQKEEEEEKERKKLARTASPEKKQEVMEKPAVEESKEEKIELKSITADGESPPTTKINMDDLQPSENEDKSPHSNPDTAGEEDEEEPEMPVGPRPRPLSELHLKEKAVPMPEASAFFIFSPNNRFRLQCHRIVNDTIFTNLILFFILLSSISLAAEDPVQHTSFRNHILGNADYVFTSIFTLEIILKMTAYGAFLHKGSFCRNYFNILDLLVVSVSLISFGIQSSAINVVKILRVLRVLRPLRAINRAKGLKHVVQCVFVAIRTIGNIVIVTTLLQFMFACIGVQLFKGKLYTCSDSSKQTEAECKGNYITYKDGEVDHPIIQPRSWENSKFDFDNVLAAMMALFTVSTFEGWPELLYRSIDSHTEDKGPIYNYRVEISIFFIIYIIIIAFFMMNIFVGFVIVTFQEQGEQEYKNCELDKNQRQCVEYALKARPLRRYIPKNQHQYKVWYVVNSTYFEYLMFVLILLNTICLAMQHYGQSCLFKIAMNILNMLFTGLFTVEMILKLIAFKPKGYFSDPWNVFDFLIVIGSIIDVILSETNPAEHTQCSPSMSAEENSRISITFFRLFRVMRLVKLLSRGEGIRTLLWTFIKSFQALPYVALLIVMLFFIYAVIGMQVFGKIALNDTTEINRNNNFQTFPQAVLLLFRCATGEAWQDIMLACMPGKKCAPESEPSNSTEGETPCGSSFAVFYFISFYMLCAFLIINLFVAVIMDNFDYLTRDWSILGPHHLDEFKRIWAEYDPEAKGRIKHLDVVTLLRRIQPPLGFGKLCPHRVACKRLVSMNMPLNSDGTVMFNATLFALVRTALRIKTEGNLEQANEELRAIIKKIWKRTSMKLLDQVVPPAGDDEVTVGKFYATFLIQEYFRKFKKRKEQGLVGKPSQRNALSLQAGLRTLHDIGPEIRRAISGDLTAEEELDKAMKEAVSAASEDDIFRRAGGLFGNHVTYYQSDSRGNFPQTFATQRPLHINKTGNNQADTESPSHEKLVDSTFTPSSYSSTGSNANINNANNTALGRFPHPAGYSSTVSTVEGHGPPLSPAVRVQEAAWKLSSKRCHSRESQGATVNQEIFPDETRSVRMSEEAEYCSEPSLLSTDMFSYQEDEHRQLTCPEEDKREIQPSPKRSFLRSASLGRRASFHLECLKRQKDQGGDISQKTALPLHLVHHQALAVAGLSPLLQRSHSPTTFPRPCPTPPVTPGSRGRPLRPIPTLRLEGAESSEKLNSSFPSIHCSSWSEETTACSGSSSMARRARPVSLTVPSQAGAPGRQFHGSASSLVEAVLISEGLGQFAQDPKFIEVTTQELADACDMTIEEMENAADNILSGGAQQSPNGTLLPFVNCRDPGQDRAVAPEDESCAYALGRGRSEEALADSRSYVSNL
PDE4B2, sequence (Q07343 1-564 isoform Q07343-2): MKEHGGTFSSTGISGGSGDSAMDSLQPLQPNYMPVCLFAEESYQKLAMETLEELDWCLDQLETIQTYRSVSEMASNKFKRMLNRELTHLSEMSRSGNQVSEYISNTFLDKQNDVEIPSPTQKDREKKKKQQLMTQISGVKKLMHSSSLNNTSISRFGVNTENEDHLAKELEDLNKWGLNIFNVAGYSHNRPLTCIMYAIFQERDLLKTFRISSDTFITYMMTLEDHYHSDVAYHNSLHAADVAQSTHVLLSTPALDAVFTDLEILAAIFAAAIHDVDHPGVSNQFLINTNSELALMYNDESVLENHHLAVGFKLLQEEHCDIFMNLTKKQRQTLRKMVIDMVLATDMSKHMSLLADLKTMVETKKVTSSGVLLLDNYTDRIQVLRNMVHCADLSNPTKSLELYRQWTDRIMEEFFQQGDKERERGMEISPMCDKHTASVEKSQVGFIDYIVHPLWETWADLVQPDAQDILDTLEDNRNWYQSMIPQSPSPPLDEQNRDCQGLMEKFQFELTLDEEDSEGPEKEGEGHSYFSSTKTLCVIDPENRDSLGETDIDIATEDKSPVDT
T4 sequence (P35372 whole entry): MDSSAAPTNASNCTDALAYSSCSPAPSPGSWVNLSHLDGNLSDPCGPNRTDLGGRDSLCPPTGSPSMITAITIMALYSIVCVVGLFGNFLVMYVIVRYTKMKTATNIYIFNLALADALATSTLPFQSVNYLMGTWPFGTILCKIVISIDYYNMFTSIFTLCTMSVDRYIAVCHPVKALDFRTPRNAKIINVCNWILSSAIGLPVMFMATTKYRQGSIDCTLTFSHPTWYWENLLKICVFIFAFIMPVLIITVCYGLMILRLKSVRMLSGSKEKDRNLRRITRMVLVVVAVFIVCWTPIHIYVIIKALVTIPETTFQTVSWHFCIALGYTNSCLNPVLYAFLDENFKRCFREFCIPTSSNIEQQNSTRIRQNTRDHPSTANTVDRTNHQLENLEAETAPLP

On to `Cn1nccc1C(=O)Nc1nc2ccc(C#N)cc2n1CC(C)(C)C` [Compound 29, O=C(Nc1n(CC(C)(C)C)c(c2n1)cc(C#N)cc2)c3n(C)ncc3], for which the EC50 on B2 [1], on 5-HT1A, at ETB and on CB1 was more than 10 µM each time. Besides, the IC50 against B2 [2], at Opioid mu, against Cav1.2 (L-type), with P2Y, at D2L and on PDE4B2 was more than 10 µM each time. In the data set “Medium protein binding”, the “Media Binding” value is reported as 57.20%. This compound showed an eLogD in [3] (S1 Data) of 3.39. Also, the chromatographic logD (commonly lipophilicity estimated from chromatographic retention) in data set [3] (experimental, pH 7.4) stood at 3.4.

For `N#Cc1ccc2nc(NC(=O)c3ccnc(C(F)(F)F)c3)n(CC(F)(F)F)c2c1` [Compound 44, O=C(c1ccnc(C(F)(F)F)c1)Nc2nc(ccc(C#N)c3)c3n2CC(F)(F)F], the EC50 at B2 [1], on 5-HT1A, at ETB and on CB1 was more than 10 µM each time. In addition, the half-maximal inhibitory concentration (IC50) at B2 [2], against Opioid mu, on Cav1.2 (L-type), in the data set on P2Y, on D2L and on PDE4B2 was more than 10 µM in each case. The Medium binding in “Medium protein binding” is 88.7%. Also, the “Media Binding” value in “Medium protein binding” was 88.65%. Besides, in data set [3] (S1 Data), the eLogD was determined as 3.12. The chromatographic logD in [3] (experimental, pH 7.4) amounted to 3.1.

As for `Cn1nc(C(F)(F)F)cc1C(=O)Nc1nc2ccc(C#N)cc2n1CC(F)(F)F` [Compound 39, O=C(c1cc(C(F)(F)F)nn1C)Nc2nc(ccc(C#N)c3)c3n2CC(F)(F)F], the EC50 at B2 [1], at 5-HT1A, at ETB and at CB1 was more than 10 µM in each case. For the same compound, the IC50 against B2 [2], against Opioid mu, on Cav1.2 (L-type), with P2Y, on D2L and against PDE4B2 was more than 10 µM in each case. In the data set “Medium protein binding”, this compound registered a Medium binding of 88.3%. Also, the “Media Binding” value in the data set “Medium protein binding” turned out to be 88.34%. In data set [3] (S1 Data), the eLogD is given as 3.01. The compound also registered a chromatographic logD in [3] (experimental, pH 7.4) of 3.

For the compound `COc1ccc(C(=O)Nc2nc3ccc(C#N)cc3n2CC(F)(F)F)cn1` [Compound 43, O=C(c1ccc(OC)nc1)Nc2nc(ccc(C#N)c3)c3n2CC(F)(F)F], the EC50 at B2 [1], at 5-HT1A, on ETB and on CB1 was more than 10 µM in each case. For the same compound, the 50% inhibitory concentration (IC50) against B2 [2], against Opioid mu, against Cav1.2 (L-type), with P2Y, on D2L and on PDE4B2 was more than 10 µM throughout. In “Medium protein binding”, the “Media Binding” value stood at 56.74%. The compound also showed an eLogD in data set [3] (experimental, pH 7.4) of 4.9. The chromatographic logD in [3] (pH 7.4, S1 Data) came out at 4.85.

As for `N#Cc1ccc2nc(NC(=O)c3ccc(C(F)(F)F)nc3)n(CC(F)(F)F)c2c1` [Compound 45, O=C(c1ccc(C(F)(F)F)nc1)Nc2nc(ccc(C#N)c3)c3n2CC(F)(F)F], the EC50 at B2 [1], at 5-HT1A, at ETB and on CB1 was more than 10 µM in each case. The IC50 on B2 [2], against Opioid mu, at Cav1.2 (L-type), in the data set with P2Y, on D2L and against PDE4B2 was more than 10 µM each time. In addition, the “Media Binding” value in the data set “Medium protein binding” was determined as 83.98%. The eLogD in data set [3] (experimental, pH 7.4) amounted to 3.1. This compound registered a chromatographic logD in [3] (pH 7.4, S1 Data) of 3.1.

As to `Cn1nccc1C(=O)Nc1nc2ccc(C#N)cc2n1CC(F)(F)F` [Compound 30, O=C(c1ccnn1C)Nc2nc(ccc(C#N)c3)c3n2CC(F)(F)F], the EC50 at B2 [1], on 5-HT1A, at ETB and at CB1 was more than 10 µM in each case. Also, the IC50 against B2 [2], on Opioid mu, against Cav1.2 (L-type), in the data set with P2Y, at D2L and on PDE4B2 was more than 10 µM throughout. For the same compound, the Medium binding in the data set “Medium protein binding” is listed as 29.2%. In “Medium protein binding”, the “Media Binding” value came to 29.15%. Also, the eLogD in data set [3] (S1 Data) came to 2.70. Besides, in [3] (experimental, pH 7.4), the chromatographic logD was 2.7.
